Experimental data: US10392383B2, “3-(1H-benzo[d]imidazol-2-yl)-1H-pyrazolo[4,3-b]pyridines and therapeutic uses thereof” (Samumed, LLC, priority 2015, dated 2019)
pEC50: −log10 of the molar value.

Tests used:
Type in all cases: cell-based
IL-6 (THP-1 cells) = experiment: IL-6 inhibition in LPS-stimulated THP-1 monocytes (HTRF); conditions: Homo sapiens, IL-6 HTRF; for pEC50: 500 ng/mL LPS, Table 6; for inhibition at 10 µM: LPS, Table 6, read-out: percent inhibition at 10 μM (given in parentheses for EC50 >10 μM)
Outline: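 THP-1 cells in 1% FBS pre-incubated 2 h with compound (10-point 1:3 series from 10 μM, 0.1% DMSO), then stimulated with 500 ng/mL LPS for 22 h at 37 °C. IL-6 measured by HTRF 665/620 ratio, normalized to DMSO; EC50 by four-parameter fit, or % inhibition at 10 μM when EC50 >10 μM.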

SW480 colon cancer cells = experiment: Cell viability assay (CellTiter-Blue) in SW480 cells; conditions: Homo sapiens, 96 h, four days; for pEC50: CellTiter-Blue, 10 μM to 0.0045 μM; for inhibition at 10 µM: read-out: percent inhibition at 10 μM (given for EC50 of >10 μM)
Outline: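 Four-day viability readout in SW480 cells: compound at 0.0045–10 μM (1:3 series), DMSO controls in eight replicates, CellTiter-Blue fluorescence after ~3 h. Values are regression-derived EC50s, or percent inhibition at 10 μM when EC50 exceeds 10 μM.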

[1] = system: primary human mesenchymal stem cells (hMSCs); experiment: Induction of chondrogenesis in human mesenchymal stem cells (nodule staining with Rhodamine B / Nile Red); conditions: for Emax: TGF-β3 (10 ng/mL) as positive control, read-out: Max. Activity as % TGF-β3 activity; for EC50: concentration required to induce 50% levels of chondrogenesis vs TGF-β3, read-out: Conc (nM) of 50% TGF-β3 activity
Description: Representative compounds were screened using primary human mesenchymal stem cells (hMSCs) to determine their ability to induce chondrogenesis (process by which cartilage is developed).
Human Mesenchymal Stem Cell Culture: Primary human mesenchymal stem cells (hMSCs) were purchased from Lonza (Walkersville, Md.) and expanded in Mesenchymal Stem Cell Growth Media (Lonza). Cells between passage 3 and 6 were used for the experiments.
Compound Screening: Each compound was dissolved in DMSO as a 10 mM stock and used to prepare compound source plates. For the 96 well assay, serial dilution (1:3, 6-point dose-response curves from 2700 nM to 10 nM) and compound transfer was performed using the ECHO 550 (Labcyte, Sunnyvale, Calif.) into 96-well clear bottom assay plates (Greiner Bio-One) with appropriate DMSO backfill for a final DMSO concentration of 0.03%. hMSCs were plated at 20,000 cells/well in 250 μL/well Incomplete Chondrogenic Induction Medium (Lonza; DMEM, dexamethasone, ascorbate, insulin-transferrin-selenium [ITS supplement], gentamycin-amphotericin [GA-1000], sodium pyruvate, proline and L-glutamine). TGF-β3 (10 ng/mL) was used as a positive control for differentiation while negative control wells were treated with 75 nL DMSO for normalization and calculating EC50 values. For the 384 well assay, serial dilution (1:3, 8-point dose-response curves from 5000 nM to 2.2 nM) and compound transfer was performed using the ECHO 550 (Labcyte, Sunnyvale, Calif.) into 384-well clear bottom assay plates (Greiner Bio-One) with appropriate DMSO backfill for a final DMSO concentration of 0.03%. hMSCs were plated at 8,000 cells/well in 80 μL/well Incomplete Chondrogenic Induction Medium (Lonza; DMEM, dexamethasone, ascorbate, insulin-transferrin-selenium [ITS supplement], gentamycin-amphotericin [GA-1000], sodium pyruvate, proline and L-glutamine). TGF-β3 (10 ng/mL) was used as a positive control for differentiation while negative control wells were treated with 25 nL DMSO for normalization and calculating EC50 values. Cells were incubated at 37° C. and 5% CO2 for 6 days. To image chondrogenic nodules, the cells were fixed using 4% formaldehyde (Electron Microscopy Sciences), and stained with 2 μg/mL Rhodamine B (Sigma-Aldrich) and 20 μM Nile Red (Sigma-Aldrich) [Johnson K., et. al, A Stem Cell-Based Approach to Cartilage Repair, Science, (2012), 336(6082), 717-721]. The nodules imaged (25 images per well for 96 well plates and 9 images per well for 384 well plates at 10× magnification) by excitation at 531 nm and emission at 625 nm and quantified using the CellInsight CX5 (Thermo Scientific). Area of nodules in each well was normalized to the average of 3 DMSO treated wells on the same plate using Excel (Microsoft Inc.). The normalized averages (fold change over DMSO) of 2 or 3 replicate wells for each compound concentration were calculated. Due to solubility limitations of some of the compounds, curve fitting was incomplete leading to inaccurate EC50 determinations.
Using TGF-β3 as a positive control, the concentration of representative compounds required to induce 50% levels of chondrogenesis is reported. In addition, the maximum activity of each compound and the respective dose that each compound reached maximum chondrogenesis activity is reported.

| SMILES | pEC50 (IL-6 (THP-1 cells)) | pEC50 (SW480 colon cancer cells) | EC50 [1] | inhibition at 10 µM (IL-6 (THP-1 cells)) | Emax [1] | inhibition at 10 µM (SW480 colon cancer cells) |
| --- | --- | --- | --- | --- | --- | --- |
| CC(C)(C)C(=O)Nc1cncc(-c2ccc3[nH]nc(-c4nc5c(-c6ccc(F)cc6)cccc5[nH]4)c3n2)c1 [Compound 36, N-(5-(3-(4-(4-Fluorophenyl)-1H-benzo[d]imidazol-2-yl)-1H-pyrazolo[4,3-b]pyridin-5-yl)pyridin-3-yl)pivalamide] | < 5.00 | 5.07 | 30 nM | 25.7% | 86% | – |
| Fc1ccc(-c2cccc3[nH]c(-c4n[nH]c5ccc(-c6cncnc6)nc45)nc23)cc1 [Compound 55, 3-(4-(4-Fluorophenyl)-1H-benzo[d]imidazol-2-yl)-5-(pyrimidin-5-yl)-1H-pyrazolo[4,3-b]pyridine] | < 5.00 | < 5.00 | 10 nM | 38.8% | 96% | 4.1% |
| Nc1cncc(-c2ccc3[nH]nc(-c4nc5c(-c6ccccc6F)cccc5[nH]4)c3n2)c1 [Compound 59, 5-(3-(4-(2-Fluorophenyl)-1H-benzo[d]imidazol-2-yl)-1H-pyrazolo[4,3-b]pyridin-5-yl)pyridin-3-amine] | 6.31 | 5.79 | 30 nM | – | 82% | – |
| c1cncc(-c2ccc3[nH]nc(-c4nc5c(-c6cccnc6)cccc5[nH]4)c3n2)c1 [Compound 88, 5-(Pyridin-3-yl)-3-(4-(pyridin-3-yl)-1H-benzo[d]imidazol-2-yl)-1H-pyrazolo [4,3-b]pyridine] | < 5.00 | 5.17 | 30 nM | 31.8% | 58% | – |
| CC(C)C(=O)Nc1cncc(-c2ccc3[nH]nc(-c4nc5c(-c6cccnc6)cccc5[nH]4)c3n2)c1 [Compound 93, N-(5-(3-(4-(Pyridin-3-yl)-1H-benzo[d]imidazol-2-yl)-1H-pyrazolo[4,3-b]pyridin-5-yl)pyridin-3-yl)isobutyramide] | < 5.00 | < 5.00 | – | 42.5% | 36% | 29.9% |
| CC(C)Nc1cncc(-c2ccc3[nH]nc(-c4nc5c(-c6cccnc6)cccc5[nH]4)c3n2)c1 [Compound 96, N-Isopropyl-5-(3-(4-(pyridin-3-yl)-1H-benzo[d]imidazol-2-yl)-1H-pyrazolo [4,3-b]pyridin-5-yl)pyridin-3-amine] | 5.76 | 5.05 | – | – | 24% | – |
| Cc1ccncc1-c1ccc2[nH]nc(-c3nc4c(-c5ccncc5)cccc4[nH]3)c2n1 [Compound 117, 5-(4-Methylpyridin-3-yl)-3-(4-(pyridin-4-yl)-1H-benzo[d]imidazol-2-yl)-1H-pyrazolo[4,3-b]pyridine] | < 5.00 | < 5.00 | – | 51.4% | 45% | 16.9% |
| O=C(Cc1ccccc1)Nc1cncc(-c2ccc3[nH]nc(-c4nc5c(-c6ccncc6)cccc5[nH]4)c3n2)c1 [Compound 122, 2-Phenyl-N-(5-(3-(4-(pyridin-4-yl)-1H-benzo[d]imidazol-2-yl)-1H-pyrazolo [4,3-b]pyridin-5-yl)pyridin-3-yl)acetamide] | < 5.00 | 5.84 | 300 nM | 40.3% | 75% | – |
| CCNCc1cncc(-c2ccc3[nH]nc(-c4nc5c(-c6ccccn6)cccc5[nH]4)c3n2)c1 [Compound 146, N-((5-(3-(4-(Pyridin-2-yl)-1H-benzo[d]imidazol-2-yl)-1H-pyrazolo[4,3-b]pyridin-5-yl)pyridin-3-yl)methyl)ethanamine] | < 5.00 | 5.81 | 1670 nM | 19.5% | 279% | – |
| Cn1cc(-c2ccc3[nH]nc(-c4nc5c(-c6ccc7c(c6)OCO7)cccc5[nH]4)c3n2)c(CO)n1 [Compound 1152, (4-(3-(4-(Benzo[d][1,3]dioxol-5-yl)-1H-benzo[d]imidazol-2-yl)-1H-pyrazolo[4,3-b]pyridin-5-yl)-1-methyl-1H-pyrazol-3-yl)methanol] | < 5.00 | 6.21 | – | 23.3% | – | – |

The next lines start with results.

| pEC50 (IL-6 (THP-1 cells)) | pEC50 (SW480 colon cancer cells) | EC50 [1] | SMILES | inhibition at 10 µM (IL-6 (THP-1 cells)) | Emax [1] | inhibition at 10 µM (SW480 colon cancer cells) |
| --- | --- | --- | --- | --- | --- | --- |
| 6.41 | 6.26 | – | Fc1ccc(-c2cccc3[nH]c(-c4n[nH]c5ccc(-c6cncc(CN7CCCC7)c6)nc45)nc23)cc1 [Compound 42, 3-(4-(4-Fluorophenyl)-1H-benzo[d]imidazol-2-yl)-5-(5-(pyrrolidin-1-ylmethyl)pyridin-3-yl)-1H-pyrazolo[4,3-b]pyridine] | – | 23% | – |
| < 5.00 | < 5.00 | 30 nM | O=C(Nc1cncc(-c2ccc3[nH]nc(-c4nc5c(-c6ccc(F)cc6)cccc5[nH]4)c3n2)c1)C1CCC1 [Compound 49, N-(5-(3-(4-(4-Fluorophenyl)-1H-benzo[d]imidazol-2-yl)-1H-pyrazolo[4,3-b]pyridin-5-yl)pyridin-3-yl)cyclobutanecarboxamide] | 43.6% | 69% | 12.9% |
| < 5.00 | < 5.00 | 2700 nM | CCCC(=O)Nc1cncc(-c2ccc3[nH]nc(-c4nc5c(-c6ccncc6)cccc5[nH]4)c3n2)c1 [Compound 129, N-(5-(3-(4-(Pyridin-4-yl)-1H-benzo[d]imidazol-2-yl)-1H-pyrazolo[4,3-b]pyridin-5-yl)pyridin-3-yl)butyramide] | 34.9% | 59% | 0% |
| 6.79 | < 5.00 | 1670 nM | CCC(=O)Nc1cncc(-c2ccc3[nH]nc(-c4nc5c(N6CCCCC6)cccc5[nH]4)c3n2)c1 [Compound 169, N-(5-(3-(4-(Piperidin-1-yl)-1H-benzo[d]imidazol-2-yl)-1H-pyrazolo[4,3-b]pyridin-5-yl)pyridin-3-yl)propionamide] | – | 66% | 41.4% |
| 5.31 | 5.94 | 10 nM | CN(C)Cc1cncc(-c2ccc3[nH]nc(-c4nc5c(N6CCCCC6)cccc5[nH]4)c3n2)c1 [Compound 181, N,N-dimethyl-1-(5-(3-(4-(piperidin-1-yl)-1H-benzo[d]imidazol-2-yl)-1H-pyrazolo[4,3-b]pyridin-5-yl)pyridin-3-yl)methanamine] | – | 52% | – |
| 5.08 | < 5.00 | – | CN1CCN(c2cccc3[nH]c(-c4n[nH]c5ccc(-c6cncc(N)c6)nc45)nc23)CC1 [Compound 227, 5-(3-(4-(4-Methylpiperazin-1-yl)-1H-benzo[d]imidazol-2-yl)-1H-pyrazolo [4,3-b]pyridin-5-yl)pyridin-3-amine] | – | 50% | 18.4% |
| < 5.00 | < 5.00 | 30 nM | CC(C)C(=O)Nc1cncc(-c2ccc3[nH]nc(-c4nc5c(N6CCN(C)CC6)cccc5[nH]4)c3n2)c1 [Compound 233, N-(5-(3-(4-(4-Methylpiperazin-1-yl)-1H-benzo[d]imidazol-2-yl)-1H-pyrazolo[4,3-b]pyridin-5-yl)pyridin-3-yl)isobutyramide] | 42.9% | 52% | 6.4% |
